Measured values reported in US20240109836A1, “NON-HALL[…] ANALOGS FOR TREATMENT OF NEUROLOGICAL AND PSYCHIATRIC DISORDERS” (The Trustees of Columbia University in the City of New York, priority 2021, published 2024).

What was measured:
5-HT2A = 5-HT2A (Homo sapiens, UniProt P28223); experiment: IP1 agonist functional assay; type: cell-based
5-HT2B = 5-HT2B (Homo sapiens, UniProt P41595); experiment: IP1 agonist functional assay; type: cell-based
[1] = Head twitch response assay; type: in vivo, Mice (C57bl/6J); details: mice, 1, 3, 10, and 30 mg/kg s.c., vs positive control DOI
Procedure: FIG. 2. […] N=5 mice in each cohort. […] Drugs were administered s.c.
Mice (C57bl/6J, 8-15 weeks, 26-33 g) were weighed and moved to the testing room 30 minutes prior to experimentation. Mice were administered the experimental compound at a selected dose s.c. and then immediately moved to a new cage. Before beginning the test, mice were allowed to remain in this cage for a set amount of time ranging 0-10 min based on the compound. The head twitch assay was performed by a trained observer watching the mouse for a 10 min duration and recording the total number of head twitches observed.
DOI was tested at the doses of 1, 3, 10 and 30 mg/kg (s.c., 5 mice per dose) and testing began immediately after administration of the compound. Ariadne (32), (29) and (38) were tested at the doses of 1, 3, 10, and 30 mg/kg (s.c., 5 mice per dose) and there was a 10 min interval between treatment and testing.

5-HT2A, sequence (P28223 whole entry): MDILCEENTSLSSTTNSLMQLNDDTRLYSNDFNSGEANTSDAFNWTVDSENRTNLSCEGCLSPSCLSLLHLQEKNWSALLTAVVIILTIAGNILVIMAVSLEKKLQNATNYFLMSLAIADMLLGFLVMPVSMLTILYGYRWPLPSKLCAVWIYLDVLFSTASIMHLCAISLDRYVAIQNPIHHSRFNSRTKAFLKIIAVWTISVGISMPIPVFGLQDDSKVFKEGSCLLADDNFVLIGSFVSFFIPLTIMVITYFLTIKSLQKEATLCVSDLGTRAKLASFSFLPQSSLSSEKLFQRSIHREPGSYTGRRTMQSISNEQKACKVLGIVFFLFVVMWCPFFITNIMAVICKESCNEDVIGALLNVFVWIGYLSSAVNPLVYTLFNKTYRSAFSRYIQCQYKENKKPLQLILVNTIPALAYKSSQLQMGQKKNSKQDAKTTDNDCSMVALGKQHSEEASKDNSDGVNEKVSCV
5-HT2B, sequence (P41595 whole entry): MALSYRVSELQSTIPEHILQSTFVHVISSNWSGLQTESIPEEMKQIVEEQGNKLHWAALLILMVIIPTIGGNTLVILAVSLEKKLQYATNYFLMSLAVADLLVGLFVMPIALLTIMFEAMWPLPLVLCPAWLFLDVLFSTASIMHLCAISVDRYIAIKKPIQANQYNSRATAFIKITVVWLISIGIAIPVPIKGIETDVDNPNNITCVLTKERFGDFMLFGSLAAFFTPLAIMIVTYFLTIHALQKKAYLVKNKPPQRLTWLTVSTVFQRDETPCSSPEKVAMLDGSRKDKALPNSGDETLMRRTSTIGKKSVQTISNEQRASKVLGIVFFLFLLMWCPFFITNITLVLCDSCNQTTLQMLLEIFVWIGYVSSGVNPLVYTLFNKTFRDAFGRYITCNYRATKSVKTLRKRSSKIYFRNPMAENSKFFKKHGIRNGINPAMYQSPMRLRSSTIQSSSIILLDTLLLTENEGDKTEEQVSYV

Structure (SMILES) | EC50 (5-HT2A) [µM] | Selectivity (EC50 2B ÷ EC50 2A) (5-HT2A; 5HT2A versus 5HT2B, relative agonism potencies) [x] | EC50 (5-HT2B) [µM] | psychedelic activity (number of head twitches in a 10-min period) [1]
CCC(N)Cc1cc(OC)c(C(F)(F)F)cc1OC (stereo not drawn) [compound 29, 1-(2,5-dimethoxy-4-(trifluoromethyl)phenyl) butan-2-amine] | 0.034 | 174 | 5.9 | lower psychedelic activity
CCC(N)Cc1cc(OC)c(COC)cc1OC (stereo not drawn) [compound 38, 1-(2,5-dimethoxy-4-(methoxymethyl)phenyl)butan-2-amine] | 3.8 |  |  | lower psychedelic activity
